In patent US9566351B2, “Molecular containers and methods of making and using same” (University of Maryland, College Park, priority 2010, dated 2017):
Several values for one entry are separate records, joined by “and”; a condition that tells them apart may be missing. Equal entries are not always repeated. Where two headings read alike, the source gives them in different places.

Assays:
[1] = drug with Motor1; 20 mM sodium phosphate buffer (pH=7.4); phase diagram
[2] = guest with Motor1; 20 mM sodium phosphate, pH = 7.4; direct UV/Vis titration (dyes) or indicator displacement
[3] = mouse, in vivo, iv, 3.2 mg/kg
[4] = mouse, in vivo
[5] = Pharmacokinetic study of Motor1.ABZ, IV route (plasma, HPLC); settings: for plasma concentration: IV
[6] = Pharmacokinetic study of Motor1.ABZ, IP route (plasma, HPLC); settings: for plasma concentration: IP
HEK293 [7] = settings: human, 48 h, 1 mM
HEK293 [8] = settings: human, 48 h, 1 mM; remark: listed apart in the source
HepG2 = settings: human, 48 h, 1 mM
[9] = Phase-solubility of pharmaceutical agents with Motor2 (1H NMR); settings: drug solubilized with Motor2; 20 mM sodium phosphate buffer (pH=7.4); phase diagram
TA98 strain = settings: Salmonella typhimurium, 6 μg/plate
TA1537 strain = assay: Ames test, strain TA1537; settings: −S9
[10] = IV Route, Motor1.ABZ (681 and 3.2 mg/kg)

N[C@@H](Cc1ccc(N(CCCl)CCCl)cc1)C(=O)O [Melphalan]
Solubility enhancement [1]: 655 fold

C(=C\c1ccccc1)/CN1CCN(C(c2ccccc2)c2ccccc2)CC1 [Cinnarizine]
Solubility enhancement [1]: 354 fold

NCCCCN [butane-1,4-diamine]
Ka [2]: 1.2 ± 0.1 × 10^5

CCCS(=O)(=O)c1ccc2nc(NC(=O)OC)[nH]c2c1 [ABZSO2, albendazole sulfone]
tmax [3]: 2 h
Absolute Bioavailability (%) [4]: 81%
tmax ([4]; ip, 3.2 mg/kg): 2 h

CCC[S+]([O-])c1ccc2[nH]c(NC(=O)OC)nc2c1 (stereo not drawn) [ABZSO, albendazole sulfoxide]
AUC [5, 10]: 14300 ng·h/mL
tmax [5, 10]: 0.5 h
Cmax ([5]; IV Route, one injection of Motor1.ABZ (681 and 3.2 mg/kg), plasma): 4340 ng/mL
plasma concentration ([5]; t = 5 min, individual mice (duplicates a, b)): 2310 ng/mL and 2970 ng/mL and 1930 ng/mL and 1840 ng/mL and 2740 ng/mL and 2630 ng/mL and 2030 ng/mL and 2070 ng/mL and 2330 ng/mL
plasma concentration ([5]; t = 15 min, individual mice): 3360 ng/mL and 3370 ng/mL and 3100 ng/mL and 2900 ng/mL and 3880 ng/mL and 3580 ng/mL
plasma concentration ([5]; t = 30 min, individual mice): 4800 ng/mL and 4210 ng/mL and 4100 ng/mL and 3740 ng/mL and 4240 ng/mL
plasma concentration ([5]; t = 2 h, individual mice): 2110 ng/mL and 1590 ng/mL and 2100 ng/mL and 2490 ng/mL and 2810 ng/mL and 2400 ng/mL
plasma concentration ([5]; t = 4 h, individual mice): 923 ng/mL and 821 ng/mL and 777 ng/mL and 650 ng/mL
plasma concentration ([5]; t = 8 h, individual mice): 404 ng/mL and 433 ng/mL and 510 ng/mL and 475 ng/mL
plasma concentration ([5]; t = 16 h, individual mice): 30 ng/mL and 47 ng/mL and 52 ng/mL and 72 ng/mL and 42 ng/mL
concentration at 5 min ([5]; Swiss Webster, mouse, in vivo, iv, plasma concentration, t = 5 min, individual mice (duplicates a, b)): 2880 ng/mL
concentration at 15 min ([5]; Swiss Webster, mouse, in vivo, iv, plasma concentration, t = 15 min, individual mice): 3490 ng/mL
concentration at 30 min ([5]; Swiss Webster, mouse, in vivo, iv, plasma concentration, t = 30 min, individual mice): 3960 ng/mL
concentration at 2 h ([5]; Swiss Webster, mouse, in vivo, iv, plasma concentration, t = 2 h, individual mice): 1590 ng/mL
concentration at 4 h ([5]; Swiss Webster, mouse, in vivo, iv, plasma concentration, t = 4 h, individual mice): 614 ng/mL
concentration at 8 h ([5]; Swiss Webster, mouse, in vivo, iv, plasma concentration, t = 8 h, individual mice): 330 ng/mL
Absolute Bioavailability (%) ([6]; IP Route relative to IV): 43%
AUC ([6]; IP Route, Motor1.ABZ (681 and 3.2 mg/kg)): 6150 ng·h/mL
Cmax ([6]; IP Route, one injection of Motor1.ABZ (681 and 3.2 mg/kg), plasma): 2620 ng/mL
tmax ([6]; IP administration, Motor1.ABZ (681 and 3.2 mg/kg)): 0.25 h
plasma concentration ([6]; t = 5, individual mice): 298 ng/mL and 400 ng/mL and 817 ng/mL and 816 ng/mL and 600 ng/mL
plasma concentration ([6]; t = 15 min, individual mice): 2460 ng/mL and 2160 ng/mL and 2910 ng/mL and 2934 ng/mL
plasma concentration ([6]; t = 30 min, individual mice): 2350 ng/mL and 2650 ng/mL and 2320 ng/mL and 2480 ng/mL
plasma concentration ([6]; t = 2 h, individual mice): 1060 ng/mL and 564 ng/mL and 463 ng/mL and 764 ng/mL and 888 ng/mL
plasma concentration ([6]; t = 4 h, individual mice): 417 ng/mL and 361 ng/mL and 431 ng/mL and 91 ng/mL
plasma concentration ([6]; t = 8 h, individual mice): 158 ng/mL and 131 ng/mL
concentration at 15 min ([6]; Swiss Webster, mouse, in vivo, ip, plasma concentration, t = 15 min, individual mice): 2820 ng/mL
concentration at 30 min ([6]; Swiss Webster, mouse, in vivo, ip, plasma concentration, t = 30 min, individual mice): 3050 ng/mL
concentration at 8 h ([6]; Swiss Webster, mouse, in vivo, ip, plasma concentration, t = 8 h, individual mice): 183 ng/mL
concentration at 16 h ([6]; Swiss Webster, mouse, in vivo, ip, plasma concentration, t = 16 h, individual mice): 44 ng/mL

CC[C@H]1OC(=O)[C@H](C)[C@@H](O[C@H]2C[C@@](C)(OC)[C@@H](O)[C@H](C)O2)[C@H](C)[C@@H](O[C@@H]2O[C@H](C)C[C@H](N(C)C)[C@H]2O)[C@](C)(O)C[C@@H](C)C(=O)[C@H](C)[C@@H](O)[C@]1(C)O [Erythromycin]
cell viability (MTS) (HEK293 [7]): 47%
cell death (AK) (HEK293 [8]): 25%
cell viability (MTS) (HepG2): 36%

C[N+](C)(C)CCOC(=O)CCC(=O)OCC[N+](C)(C)C [succinyl choline]
Ka [2]: 1.9 ± 0.1 × 10^5

Cc1c(Cl)cccc1Nc1ccccc1C(=O)O [tolfenamic acid]
Solubility enhancement [9]: 37 fold

CC[C@@]1(O)C(=O)OCc2c1cc1n(c2=O)Cc2cc3ccccc3nc2-1 [S-camptothecin]
Solubility enhancement [9]: 580 fold

COC(=O)[C@H](c1ccccc1Cl)N1CCc2sccc2C1 [Clopidogrel]
Solubility enhancement [1]: 1220 fold

Nc1ccc(N)cc1 [benzene-1,4-diamine]
Ka [2]: 3.5 ± 0.2 × 10^5

COc1cccc2c1C(=O)c1c(O)c3c(c(O)c1C2=O)C[C@@](O)(C(C)=O)C[C@@H]3O[C@H]1C[C@H](N)[C@H](O)[C@H](C)O1 [Daunomycin]
revertant colonies, positive control (TA98 strain): 361 colonies

CN(C)c1ccc(C(=C2C=CC(=[N+](C)C)C=C2)c2ccc(N(C)C)cc2)cc1 [Crystal Violet Dye, Crystal Violet]
Ka [2]: 5.2 ± 0.8 × 10^6

COc1ccc2nc3cc(Cl)ccc3c(NCCCNCCCl)c2c1 [ICR 191 Acridine]
revertant colonies, positive control (TA1537 strain): 91 colonies

COc1ccc2c(c1)c(CC(=O)O)c(C)n2C(=O)c1ccc(Cl)cc1 [indomethacin]
Solubility enhancement [9]: 56 fold
